Reference: PubChem BioAssay (NCI)
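96-well plates; 48 h exposure; 5 concentrations. Endpoints by linear interpolation between flanking doses. Not reached: highest tested concentration assigned. At the GI50, growth is halved. Definition used: TGI = concentration required for complete inhibition of growth.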

Columns and labels:
Assay in all cases: NCI anticancer screen, dose series, 48 h
LOX IMVI melanoma = tested on: LOX IMVI melanoma
SW-620 colon = tested on: SW-620 colon
MDA-MB-231 breast = tested on: MDA-MB-231 breast
OVCAR-4 ovarian = tested on: OVCAR-4 ovarian
OVCAR-5 ovarian = tested on: OVCAR-5 ovarian
SK-MEL-28 melanoma = tested on: SK-MEL-28 melanoma
HCC-2998 colon = tested on: HCC-2998 colon
MDA-N = tested on: MDA-N
T-47D breast = tested on: T-47D breast
HCT-116 colon = tested on: HCT-116 colon
HS 578T breast = tested on: HS 578T breast
PC-3 prostate = tested on: PC-3 prostate
TK-10 renal = tested on: TK-10 renal
MALME-3M melanoma = tested on: MALME-3M melanoma
UO-31 renal = tested on: UO-31 renal
CCRF-CEM leukemia = tested on: CCRF-CEM leukemia
MCF7 breast = tested on: MCF7 breast

SMILES	TGI (LOX IMVI melanoma) [µM]	TGI (SW-620 colon) [µM]	TGI (MDA-MB-231 breast) [µM]	TGI (OVCAR-4 ovarian) [µM]	TGI (OVCAR-5 ovarian) [µM]	TGI (SK-MEL-28 melanoma) [µM]	TGI (HCC-2998 colon) [µM]	TGI (MDA-N) [µM]	TGI (T-47D breast) [µM]	TGI (HCT-116 colon) [µM]	TGI (HS 578T breast) [µM]	TGI (PC-3 prostate) [µM]	TGI (TK-10 renal) [µM]	TGI (MALME-3M melanoma) [µM]	TGI (UO-31 renal) [µM]	TGI (CCRF-CEM leukemia) [µM]	TGI (MCF7 breast) [µM]	GI50 (MCF7 breast) [nM]
CCC(=O)COc1ccc(NC(NC(=O)C(C(F)(F)F)C(F)(F)F)(C(F)(F)F)C(F)(F)F)cc1	74.1	> 100	54.2	> 100	> 100	> 100	> 100	83.9	68.8	67.6	> 100	> 100	> 100	77.7	> 100	61.8	> 100	–
CC(C)(C)N1NC1C1NN1C(C)(C)C (stereo not drawn)	> 100	> 100	> 100	> 100	> 100	> 100	> 100	> 100	> 100	> 100	> 100	> 100	> 100	> 100	> 100	> 100	> 100	–
COc1ccc(OC)c2nc3c(C(=O)NCCN(C)C)cccc3nc12	4.91	21.7	19.3	11.1	> 78.2	22.2	13.4	16	> 100	20.6	29.6	17.9	46.8	27.3	> 84.7	11	> 29.8	–
CCCCc1c2c(nc3c1CCC/C3=C\c1ccccc1)C(=O)C(CN(C)C)CC2 (stereo not drawn)	30.9	31.5	31.9	22.9	33.8	28.3	54.7	21.1	14	32.6	70.8	29.1	29.6	40.4	33.7	33	15.7	–
N#CS/C(Cl)=C(/C(Cl)=C(Cl)Cl)[N+](=O)[O-]	39.8	> 100	> 100	> 100	> 100	86.5	> 100	> 100	> 100	75.7	61	> 100	> 100	47.1	> 100	> 100	> 100	–
O=C1CC2(CCC(O)(c3ccc(Cl)cc3)C(C(=O)c3ccc(Cl)cc3)C2)C(=O)c2ccccc2N1 (stereo not drawn)	> 86.8	> 100	30.6	> 100	> 100	20.6	> 100	98.1	> 72.3	> 100	7.44	> 100	39.2	> 68.4	49.9	26.6	> 100	–
CC1(C)OCC(C2OC(N3O[C@H](CI)C[C@@H]3c3ccccc3)C3OC(C)(C)OC23)O1 (stereo partly drawn)	> 100	> 100	> 100	> 100	> 100	> 100	> 100	> 100	> 100	> 100	> 100	> 100	> 100	> 100	> 100	> 100	> 100	–
CC(=O)CCC[C@@H](C)[C@@H]1O[C@H]([C@@]2(C)CCC(=O)O2)C[C@H]2C(CSc3ccccc3)C(=O)O[C@@H]12 (stereo partly drawn)	38.2	28.8	37.3	31.8	32.4	41.7	29.2	42.2	38	31.2	> 41.6	47.6	25.6	> 42.5	31.1	24.9	24.9	–
c1ccc(CCN(Cc2nc3ccccc3[nH]2)Cc2nc3ccccc3[nH]2)cc1	23.1	26	31.8	68.9	71.6	30.4	33.6	36.3	40.8	17	43.4	36.7	35.7	45.7	26.2	> 100	35.1	–
N=C1C(=N)c2ccccc2-c2ccccc21	1.02	–	1.16	2.78	3.43	3.35	3.47	0.325	1.57	1.2	> 26.1	2.88	3.01	2.57	2.96	> 20	2.27	–
Cc1cc2c(s1)C(=O)c1sccc1C2=O	0.422	0.719	2.89	1.45	3.29	0.377	3.15	0.308	3.02	2.46	2.52	4.93	6.91	0.311	2.29	> 100	2.78	–
O=[N+]([O-])c1cccc2nccc(NCC(O)CO)c12 (stereo not drawn)	54.7	36.1	45	43	42.1	34	25.8	31.8	96.1	26.8	40.7	38.5	44	28.4	37.2	> 89.9	40	–
O=C(Nc1nc(C23CC4CC(CC(C4)C2)C3)cs1)c1cc2cc(Br)cc(Br)c2oc1=O	> 100	> 100	> 100	> 100	> 100	> 100	> 100	> 100	> 100	> 100	79.7	> 100	> 100	> 100	> 100	> 100	> 100	–
O=[N+]([O-])C(=C(N1CCOCC1)N1CCOCC1)/C(Cl)=C(\Cl)[N+](=O)[O-]	5.19	5.27	10.1	30.7	31.4	28.9	39.6	25.1	4.39	4.28	16.6	32.6	3.89	3.24	18	96.8	7.73	–
C/C=C(/C)C(=O)O[C@H]1C(C)=C[C@]23C(=O)[C@@H](C=C(COC(C)=O)[C@@H](O)[C@]12O)[C@H]1[C@@H](C[C@H]3C)[C@@]1(C)OC(=O)/C(C)=C\C	9.65	9.76	8.18	6.33	6.48	11.8	5.59	6.35	3.29	9.77	5.28	4.75	7.69	3.89	2.16	5.21	6.11	–
Cc1ccccc1N(C)S(=O)(=O)c1ccccc1[N+](=O)[O-]	> 100	> 100	> 100	> 100	> 100	> 100	> 100	> 100	> 100	> 100	> 100	> 100	> 100	> 100	> 100	> 100	> 100	–
CCCCCCCCCCCCCCCCP(=O)(O)OP(=O)(O)OCC1OC(n2cnc3c(N)ncnc32)C(O)C1O (stereo not drawn)	70.5	88.1	> 100	> 100	29.2	> 100	44.8	> 100	> 100	47.3	89.1	52.9	34.3	44.8	30	97.4	45.7	–
C=C[C@H]1CN2CCc3c([nH]c4c([C@H]5CCCN5C)c(O)ccc34)[C@@H]2C[C@@H]1C[C@H]1c2[nH]c3ccccc3c2CCN1C	2.4	2.93	3.41	3.27	3.26	3.3	1.21	2.64	3.72	2.61	4.59	3.11	3.36	3.19	3.24	2.11	2.22	1050
O=C1/C(=C\c2cccc(Oc3ccccc3)c2)SC(c2ccccc2)N1c1ccc(Cl)cc1 (stereo not drawn)	> 100	> 100	> 100	> 100	> 100	> 100	> 100	> 87.9	> 100	> 100	> 100	> 100	> 100	> 100	> 100	> 63.6	> 100	–
CC(=O)O[C@H]1C(=O)[C@@]2(C)[C@H]([C@H](OC(=O)C3CCCCC3)[C@]3(O)C[C@H](OC(=O)[C@H](O)[C@@H](NC(=O)C4CCCCC4)C4CCCCC4)C(C)=C1C3(C)C)[C@]1(OC(C)=O)CO[C@@H]1C[C@@H]2O	5.03	25	0.476	11.8	0.121	8.55	0.27	0.00852	3.4	3.33	0.0531	1.96	1.3	4.96	6.23	8.78	4.36	–
CC1C[C@]2(C)C(=S)Nc3ccccc3[C@@H]2Nc2ccccc21 (stereo partly drawn)	28.5	55.7	26.3	38.6	43.5	12.7	40.6	37.4	41	26.7	85.5	35.7	39.5	30.8	32.8	54.4	27.3	–
CN(C)CCNc1ccc2c(=O)n(CCN(C)C)c(=O)n3c4ccc(N)cc4c(=O)c1c23	0.283	0.637	0.866	0.996	0.844	0.819	0.809	0.219	4.64	0.166	1.3	0.477	6.13	0.352	0.346	0.16	0.242	–
O=C1CCCc2cc3c(cc21)CCC3C(=O)O (stereo not drawn)	> 100	> 100	> 100	> 100	> 100	> 100	> 100	> 100	> 100	> 100	> 100	> 100	> 100	> 100	> 100	> 100	> 100	–
CCCCCc1c2nc(c(CCCCC)c3ccc([nH]3)c(CCCCC)c3ccc([nH]3)c(CCCCC)c3nc1C=C3)C=C2	> 100	> 100	> 100	> 100	> 100	> 100	> 100	> 100	> 100	> 100	> 100	> 100	> 100	> 100	> 100	> 100	> 100	–
